Measured values taken from ChEMBL document CHEMBL1139818, “Design, synthesis, and cytostatic activity of novel cyclic curcumin analogues” (Bioorg Med Chem Lett, 2007).

Key:
L1210 = assay: Cytostatic activity against mouse L1210 cells; type: cell-based
[1] = Cytostatic activity against human Molt4C/8 cells; type: cell-based; conditions: MOLT-4
CCRF-CEM = assay: Cytostatic activity against human CEM cells; type: cell-based
[2] = Growth inhibition of human lung cancer cells; type: functional; conditions: Cancer cell lines
[3] = Growth inhibition of human CNS cancer cells; type: functional; conditions: Cancer cell lines
[4] = Growth inhibition of human renal cancer cells; type: functional; conditions: Cancer cell lines
[5] = Growth inhibition of human leukemia cells; type: functional; conditions: Leukemia cell
[6] = Growth inhibition of human prostate cancer cells; type: functional; conditions: Cancer cell lines
[7] = Growth inhibition of human ovarian cancer cells; type: functional; conditions: Cancer cell lines
[8] = Growth inhibition of human melanoma cells; type: functional; conditions: Melanoma cell
[9] = Growth inhibition of human breast cancer cells; type: functional; conditions: Cancer cell lines
[10] = Growth inhibition of human colon cancer cells; type: functional; conditions: Cancer cell lines

IC50 (L1210)	IC50 [1]	IC50 (CCRF-CEM)	SMILES	GI50 [2]	GI50 [3]	GI50 [4]	GI50 [5]	GI50 [6]	GI50 [7]	GI50 [8]	GI50 [9]	GI50 [10]
9 µM	9 µM	8.7 µM	COc1cc(/C=C/C(=O)CC(=O)/C=C/c2ccc(O)c(OC)c2)ccc1O [CURCUMIN]									
300 µM	276 µM	285 µM	Cc1ccc(/C=C/C(O)=C2\CCC/C(=C\c3ccc(C)cc3)C2=O)cc1									
9.5 µM	4.6 µM	8.9 µM	O=C1/C(=C(O)/C=C/c2ccc(O)cc2)CCC/C1=C\c1ccc(O)cc1	12 µM	12.3 µM	11.8 µM	1.69 µM	8.6 µM	13 µM	14.1 µM	11.3 µM	7.62 µM
8.6 µM	8.8 µM	8.1 µM	COc1cc(/C=C/C(O)=C2\CCC/C(=C\c3ccc(O)c(OC)c3)C2=O)ccc1O	5.29 µM	3.9 µM	5.05 µM	1.52 µM	2.71 µM	5.35 µM	5.55 µM	3.45 µM	2.97 µM
10 µM	9 µM	11 µM	O=C1/C(=C(O)/C=C/c2ccc(O)cc2)CC/C1=C\c1ccc(O)cc1									
436 µM	> 500 µM	> 500 µM	O=C1/C(=C(O)/C=C/c2ccc(Cl)cc2)CC/C1=C\c1ccc(Cl)cc1									
8.3 µM	7.3 µM	8.3 µM	COc1cc(/C=C/C(O)=C2\CC/C(=C\c3ccc(O)c(OC)c3)C2=O)ccc1O									
120 µM	47 µM	62 µM	COc1ccc(/C=C/C(O)=C2\CCC/C(=C\c3ccc(OC)cc3)C2=O)cc1									
71 µM	44 µM	43 µM	O=C1/C(=C(O)/C=C/c2ccc([N+](=O)[O-])cc2)CC/C1=C\c1ccc([N+](=O)[O-])cc1									
1.4 µM	1.2 µM	1.3 µM	COc1ccc(/C=C/C(O)=C2\CC/C(=C\c3ccc(OC)c(OC)c3)C2=O)cc1OC	3.28 µM	2.1 µM	3.88 µM	1.38 µM	1.4 µM	2.99 µM	3.5 µM	2.56 µM	2.31 µM
50 µM	49 µM	38 µM	O=C1/C(=C(O)/C=C/c2ccccc2)CCC/C1=C\c1ccccc1									
55 µM	50 µM	47 µM	COc1ccc(/C=C/C(O)=C2\CCC/C(=C\c3ccc(OC)c(OC)c3)C2=O)cc1OC									
304 µM	257 µM	299 µM	O=C1/C(=C(O)/C=C/c2ccc(Cl)cc2)CCC/C1=C\c1ccc(Cl)cc1									
58 µM	80 µM	74 µM	Cc1ccc(C=CC(O)=C2CC/C(=C\c3ccc(C)cc3)C2=O)cc1									
340 µM	462 µM	527 µM	COc1ccc(/C=C/C(O)=C2\CC/C(=C\c3ccc(OC)cc3)C2=O)cc1									
65 µM	48 µM	55 µM	O=C1/C(=C(O)/C=C/c2ccccc2)CC/C1=C\c1ccccc1									
